The source of these data is publication PMC9612222, “Comparative Evaluation of the Antiglycation and Anti-α-Glucosidase Activities of Baicalein, Baicalin (Baicalein 7-O-Glucuronide) and the Antidiabetic Drug Metformin” (Pharmaceutics, 2022).

Where two headings read alike, the source gives them in different places. Marks after values point to notes of the source that are not given here. Some results are limits rather than exact numbers.

A short description of data set [1]: DPPH radical scavenging assay. The settings on record: for pD2 (−log EC50) antiradical potency: 70 µM DPPH, 60 min. As to the method:
The free radical scavenging activity of the samples was measured using the DPPH^• method. Sample solutions were prepared and added to 70 µM DPPH^•; the mixtures were kept in the dark for 60 min and absorbance was read at 517 nm using a Beckman Coulter DU 8005 spectrophotometer (Fullerton, CA, USA). The radical scavenging capacity was expressed as a percentage effect.

A further data set is described as follows: ORAC assay. The settings on record: 5.0 µM compound. As to the method: The radical oxygen absorption capacity (ORAC) assay was performed as previously described. Briefly, trolox was prepared in phosphate buffer over a concentration range of 6.25 to 50 µM. In 24–well plates, 1.5 mL of fluorescein (0.08 µM) was added, followed by 250 µL of trolox for the control, 250 µL of buffer for the blank, and 250 µL of each inhibitor (5.0 µM). After 10 min of incubation, at 37 °C, 250 µL of 0.15 M AAPH was added. Successively, the PerkinElmer Victor Nivo microplate reader (Waltham, MA, USA) was settled for a fluorescence kinetic reading at 37 °C for one hour, with excitation and emission wavelengths, respectively, of 485 and 530 nm. The results were expressed in TEAC (trolox equivalent antioxidant capacity, TE µmol/µmol compound).

Data set [2] has as its system HT–29 cells. Briefly: HT–29 uptake assay (HPLC–DAD). The class given is in vitro ADME, human. Conditions: 1 to 50 µM in cell medium, 30 min–3 h. As to the method:
To evaluate the cellular uptake of compounds, a previously described method was used. Briefly, HT–29 cells were seeded in a 6–well plate at a density of 500,000 cells in each well in a complete medium and allowed to grow until confluence for 48 h, at 37 °C (Figure 11). […] After incubation, an aliquot of the extracellular solution was taken from each well and stored at −20 °C for further analysis. The medium was then removed, the cells were washed with PBS and prepared for the following steps: (i) protein quantification, cells were lysed with 200 μL of lysis buffer and the wells were washed with 200 μL of PBS; and (ii) evaluation of cell uptake, cells were gently scraped with PBS, centrifuged at 1250× g rpm for 5 min, and added with 500 μL of 80% v/v methanolic solution in water/0,1% v/v acetic acid to extract intracellular content. The samples were kept on ice for 15 min, then sonicated and centrifuged at 20,000× g rpm for 10 min. […]
Chromatographic analyses were performed with an HPLC instrument (Waters Corporation, Milford, DE, USA) equipped with a 1525 binary HPLC pump and a 2998 photodiode array detector. […] Peaks were detected in the range of 210–400 nm. […] The amount of each compound was calculated using a standard calibration curve. The protein content of the lysate was detected using the Lowry protein assay, to express the results as nmol/mg protein.

The test system of data set [3] is HT–29 cells. Nature of the data set: MTT cell viability assay. The data set is classed as cell-based, human. As to the method:
Cell viability was assessed with the MTT assay. HT–29 cells were seeded in a 96–well plate at a density of 5000 cells in each well and allowed to grow overnight. The cells were treated with various concentrations of the substances. After 24 h of incubation, an aliquot of MTT solution was added to each well, to reach the final concentration of 500 μg/mL. Subsequently, after the MTT reduction by cellular enzymes, the medium was removed and the insoluble formazan salts were solubilized with 2–propanol. The absorbance of each purple formazan solution was measured using a PerkinElmer Victor Nivo microplate reader (Waltham, MA, USA), at a wavelength of 520 nm.
In general terms: Formazan colour is commonly taken as a measure of viable cells.

Data set [4] deals with BSA. Nature of the data set: BSA assay (AGE formation by fluorescence). Also noted: species or system bovine. The settings on record: for concentration inhibiting glyoxal-induced BSA glycation: 50 mg/mL BSA + 0.003 M glyoxal. As to the method: Glycated BSA was obtained according to a previously reported method. Briefly, AGEs were detected using BSA (50 mg/mL, pH 7.4), as protein substrate, and glucose (0.8 M), glyoxal (0.003 M) or ribose (0.1 M), as glycation agents. […] The fluorescence intensity was measured at an excitation wavelength of 355 nm and an emission wavelength of 460 nm with a PerkinElmer Victor Nivo microplate reader (Waltham, MA, USA). Inhibition of AGE formation was calculated as the fluorescence difference between glycation under the control condition and in the presence of each inhibitor. Aminoguanidine (2.5 mM, AG) was used as a positive control.

The nature of data set [5]: GK peptide–ribose assay (peptide cross–linking). The settings on record: 2 days; for reduction of GK peptide cross–linking (in words): 1–100 µM. As to the method:
The N–acetyl–glycyl–lysine methyl ester (GK) peptide–ribose assay was performed with some modifications to a published method. Briefly, GK peptide (27 mg/mL), a synthetic model peptide, was incubated with 40 mg/mL (0.27 M) D–ribose in sodium phosphate buffer (pH 7.4) and test samples were added at final concentrations ranging from 1.0–100 μM. After 48 h of incubation, fluorescence was read at 355 and 460 nm for excitation and emission wavelengths, respectively, with a PerkinElmer Victor Nivo microplate reader (Waltham, MA, USA). The fluorescence measurement allows the calculation of GK peptide glycation inhibition as a percentage difference between the control condition and glycation in the presence of the inhibitor. Aminoguanidine (2.5 mM, AG) was used as a positive control.

Data set [6] has as its system α–glucosidase (EC 3.2.1.20, Saccharomyces cerevisiae type I). The class given is biochemical. The settings on record: for inhibition of α–glucosidase activity: 50 µM compound. As to the method: The inhibitory activity of baicalein and baicalin was studied using the yeast α–glucosidase assay, using pNPG as a substrate. The enzyme acts by hydrolyzing pNPG into […] and p–nitrophenol (yellow); the reaction was detected at different inhibitor concentrations by variation in chromatic intensity. Acarbose ([…]) was used as a positive control. Each sample was incubated with several α–glucosidase concentrations (0.035, 0.05, 0.07 and 0.1 µM) in PBS solutions (pH 6.8) for 10 min, at 37 °C. The reaction started with the addition of pNPG. Absorbance values were detected at 405 nm for 60 min, using a PerkinElmer Victor Nivo microplate reader spectrophotometer (Waltham, MA, USA). The half–maximal inhibitory concentration (IC50) was estimated by the plot of relative enzyme activity versus inhibitor concentration. The type of enzyme inhibition exerted by baicalein was evaluated from kinetic studies using different substrate concentrations (0.5, 1.0, 1,5 and 2.0 mM pNPG) through the Michaelis–Menten and Lineweaver–Burk plots.

The subject of data set [7] is BSA. Briefly: Carbonyl content assay (BSA–ribose glycation). More on the design: species or system bovine. The settings on record: 50 mg/mL BSA + 0.1 M ribose; for inhibition of carbonyl increase: not concentration dependent. As to the method:
The total protein–bound carbonyl content was determined by derivatization of the carbonyl group with 2,4–dinitrophenylhydrazine (DNPH), which leads to the formation of a stable dinitrophenylhydrazone product, which was monitored spectrophotometrically at 375 nm with a PerkinElmer Victor Nivo microplate reader (Waltham, MA, USA). Glycated BSA samples were mixed with DNPH solution (10 mM in 2.0 M HCl) for 1 h at 37 °C in the dark. The proteins were precipitated with 20% trichloroacetic acid. The mixture was centrifuged at 10,000× g rpm, 10 min at 4 °C, to obtain a pellet and the supernatant was removed. DNPH was removed by extracting the pellet twice using a solution of ethyl acetate/ethanol (1:1). Lastly, the pellet was dissolved in guanidine hydrochloride (6 M) before reading the absorbance at 375 nm. The concentration of DNPH derivatized proteins was determined by the molar extinction coefficient of 22,000 M^−1 cm^−1 [64]. The protein concentration was measured using a BCA assay, and the protein carbonyl concentration was expressed as nmol/mg of protein. Aminoguanidine (2.5 mM, AG) was used as a positive control.

The next data set has as its target α–glucosidase. Conditions: cited from earlier work.
The target of another data set is rat α–glucosidase. Conditions: cited from earlier work.
[8] abbreviates: 50 mg/mL BSA + 0.1 M ribose, 5 days.
Setting [9] is: 50 mg/mL BSA + 0.8 M glucose, 7 days.
[10] abbreviates: α–glucosidase 0.035 µM, 2 mM pNPG.
Where [11] appears, read: α–glucosidase 0.05 µM, 2 mM pNPG.
Setting [12] is: α–glucosidase 0.07 µM, 2 mM pNPG.
Setting [13] is: α–glucosidase 0.10 µM, 2 mM pNPG.

Turning to `CC(=O)N[C@@H](CS)C(=O)O` [NAC, N–acetylcysteine], the “pD2 (−log EC50) antiradical potency” value in data set [1] is on record as 4.38 ± 0.02. Also, the “TEAC (trolox equivalent antioxidant capacity)” value (from here on “TEAC”) in the data set “ORAC assay” turned out to be 1.45 ± 0.01 µmol TE/µmol.

On to `O=C1O[C@H]([C@@H](O)CO)C(O)=C1O` [ascorbic acid], for which, in data set [1], the “pD2 (−log EC50) antiradical potency” value is given as 4.77 ± 0.04. In addition, in “ORAC assay”, the “TEAC” value came out at 0.65 ± 0.01 µmol TE/µmol.

For the compound `O=c1cc(-c2ccccc2)oc2cc(O)c(O)c(O)c12` [baicalein, 5,6,7–trihydroxyflavone], the “parent compound after incubation with cells (in words)” value in the data set on HT–29 cells [2] is “no longer measurable”. Further, the “pD2 (−log EC50) antiradical potency” value in data set [1] was determined as 4.91 ± 0.01. For the same compound, the “change of cell viability” value in the data set on HT–29 cells [3] (5 µM) is reported as −25 % of the control. The IC50 in the data set with HT–29 cells [3] (Homo sapiens, HT-29, 0.1 to 50 µM, 24 h, read-out: pD2 for inhibition of HT–29 cell viability (converted)) is 36.3 µM; in data set [5] (GK peptide + ribose, read-out: IC50 of AGE formation (GK cross–linking)), 49.7 ± 0.5 µM; in [6] (setting [10]), 18.1 µM; in data set [6] (setting [11]), 24.1 µM; in data set [6] (setting [12]) it was 51.6 µM; in data set [6] (setting [13]), 555 µM. In addition, the “concentration inhibiting glyoxal-induced BSA glycation” value with BSA [4] (7 days) was 10 µM. For the same compound, in the data set with BSA [4] (setting [8]), the “concentration from which glycated albumin is reduced” value was 5 µM. Besides, the “concentration from which AGE formation is significantly inhibited” value with BSA [4] (setting [9]) was 5 µM. Further, in data set [5] (GK peptide + ribose), the “pD2 of AGE formation (GK cross–linking)” value stood at 4.3. In the data set “ORAC assay”, the “TEAC” value was 5.41 ± 0.33 µmol TE/µmol. Also, the entries for the “inhibition of α–glucosidase activity” value in data set [6] (0.035 µM α–glucosidase) and in data set [6] (0.05 µM α–glucosidase) were “about 90%” and approximately 75%, respectively. The “type of enzyme inhibition” value in data set [6] (Lineweaver–Burk plot, 0.05 µM enzyme, 0.5–2.0 mM pNPG) is reported as “mixed–type”. The Ki in [6] (mixed–model inhibition, 0.05 µM enzyme, 0.5–2.0 mM pNPG, read-out: inhibition constant (Ki)) is 25.9 µM; on α–glucosidase (ref 53), 45 µM; at α–glucosidase (ref 54), 44 µM; at rat α–glucosidase (ref 49) it was 14.6 µM. Moreover, the “pD2 (−Log IC50)” value was 4.74 ± 0.02 ^a in data set [6] (setting [10]), 4.62 ± 0.04 ^a in [6] (setting [11]), 4.29 ± 0.07 ^a in data set [6] (setting [12]) and 3.26 ± 0.26 ^b in [6] (setting [13]). Moreover, the “concentration range with detectable reduction of carbonyl increase” value in the data set on BSA [7] was in the range of 10 to 100 µM. Also, the “inhibition of carbonyl increase” value in the data set with BSA [7] was 15–25%.

As for `O=C(O)[C@H]1O[C@@H](Oc2cc3oc(-c4ccccc4)cc(=O)c3c(O)c2O)[C@H](O)[C@@H](O)[C@@H]1O` [baicalin, 7–β–D–glucuronic acid of 5,6–trihydroxyflavone], the “pD2 (−log EC50) antiradical potency” value in data set [1] is 4.89 ± 0.03. In addition, the “concentration inhibiting glyoxal-induced BSA glycation” value with BSA [4] (7 days) was 5 µM. For the same compound, the “concentration from which glycated albumin is reduced” value with BSA [4] (setting [8]) is reported as 5 µM. The “concentration from which AGE formation is significantly inhibited” value with BSA [4] (setting [9]) amounted to 5 µM. Moreover, in data set [5], the “reduction of GK peptide cross–linking (in words)” value is “only slightly and not significantly reduced”. In addition, in the data set “ORAC assay”, the “TEAC” value turned out to be 5.90 ± 0.23 µmol TE/µmol. Besides, the “effect on α–glucosidase activity (in words)” value in data set [6] (0.05 µM enzyme, 2 mM pNPG, 1–100 µM compound) is recorded as “did not induce any modification”. Further, in the data set on BSA [7], the “concentration range with detectable reduction of carbonyl increase” value is 10 to 100 µM, the “lowest concentration tested that inhibited carbonyl formation” value came to 5 µM and the “inhibition of carbonyl increase” value is listed as 15–25%. Further, the IC50 on rat α–glucosidase (in vitro) is more than 400 µM.

On to `CN(C)C(=N)NC(=N)N` [metformin, 1,1–dimethylbiguanide], for which the “DPPH scavenging effect (in words)” value in data set [1] (0.1 to 500 µM) is “did not show any scavenging effect”. In addition, the “inhibition of AGE formation (in words)” value in the data set with BSA [4] (setting [8]) is given as “did not achieve any protection”; in the data set on BSA [4] (setting [9]), “did not show any significant inhibition”; with BSA [4] (1–100 µM, glucose, glyoxal and ribose (Figure 3)), “did not show a significant effect”. Moreover, the “reduction of GK peptide cross–linking (in words)” value in data set [5] was “not active”. Also, the “TEAC” value in “ORAC assay” is listed as 0.48 ± 0.10 µmol TE/µmol.

In general, Ki refers to the equilibrium dissociation constant of an inhibitor or competing ligand from its target.
